Earlier results in patent US20070141100A1, “Drug-eluting biodegradable stent” (priority 2003, published 2007).
Entries after “also recorded” stand apart in the source; their conditions may differ. One block for each molecule: values may come before it.

Tests used:
3T3 fibroblasts = settings: in vitro
[1] = system: Chinese hamster ovary (CHO-K1) cells; settings: in vitro
mice = settings: i.v.
[2] = glutaraldehyde used to crosslink materials
[3] = system: renal transplant recipients; settings: everolimus trough serum concentrations above 7.8 ng/ml
neointimal proliferation = settings: animal studies, compared with a control bare metal stent

Compound: COC(=O)C1=CO[C@@H](O)[C@@H]2C(CO)=CC[C@H]12 [genipin]
cytotoxicity compared with glutaraldehyde (3T3 fibroblasts): substantially less cytotoxic than glutaraldehyde; also recorded: significantly less cytotoxic than glutaraldehyde
clastogenic response (genotoxicity) [1]: does not cause clastogenic response
LD50 (mice): 382 mg/k

Compound: CO[C@H]1C[C@@H]2CC[C@@H](C)[C@@](O)(O2)C(=O)C(=O)N2CCCC[C@H]2C(=O)O[C@H]([C@H](C)C[C@@H]2CC[C@@H](OCCO)[C@H](OC)C2)CC(=O)[C@H](C)/C=C(\C)[C@@H](O)[C@@H](OC)C(=O)[C@H](C)C[C@H](C)/C=C/C=C/C=C/1C [Everolimus]
solubility in water: poorly soluble in water
rate of thrombocytopenia [3]: 17%
reduction of neointimal proliferation (neointimal proliferation): 50%

Now from value to molecule, other results behind:

solubility in water: non-water soluble
Compound: CO[C@H]1C[C@@H]2CC[C@@H](C)[C@@](O)(O2)C(=O)C(=O)N2CCCC[C@H]2C(=O)O[C@H]([C@H](C)C[C@@H]2CC[C@@H](O)[C@H](OC)C2)CC(=O)[C@H](C)/C=C(\C)[C@@H](O)[C@@H](OC)C(=O)[C@H](C)C[C@H](C)/C=C/C=C/C=C/1C [Sirolimus]

solubility in water: practically water insoluble
Compound: CC(=O)O[C@H]1C(=O)[C@@]2(C)[C@H]([C@H](OC(=O)c3ccccc3)[C@]3(O)C[C@H](OC(=O)[C@H](O)[C@@H](NC(=O)c4ccccc4)c4ccccc4)C(C)=C1C3(C)C)[C@]1(OC(C)=O)CO[C@@H]1C[C@@H]2O [Taxol, paclitaxel]

crosslinking concentration giving a persistent foreign-body reaction [2]: above 0.05%
Compound: O=CCCCC=O [glutaraldehyde]
cytotoxic at concentrations greater than (tissue culture): 10-25 ppm
cytotoxic at concentrations as low as (tissue culture; in tissue culture): 3 ppm
